# Results: US7858635B2 (priority 2005, dated 2010)
# Like-named read-outs stand apart in the source and are kept apart here.
# What was measured:
# M4 muscarinic receptor = target: T1, M4 muscarinic receptor (Homo sapiens, UniProt P08173); assay: Functional mobilization of intracellular calcium (FLIPR, Fluo-3), M4-CHO cells; format: cell-based; settings: for Emax: read-out: M4 Efficacy
# T1 construct: expressed in transfected cells; host or cells: CHO cells (M4-CHO, under puromycin, zeocin and blasticidin selection)
# T1 sequence (P08173 1-479): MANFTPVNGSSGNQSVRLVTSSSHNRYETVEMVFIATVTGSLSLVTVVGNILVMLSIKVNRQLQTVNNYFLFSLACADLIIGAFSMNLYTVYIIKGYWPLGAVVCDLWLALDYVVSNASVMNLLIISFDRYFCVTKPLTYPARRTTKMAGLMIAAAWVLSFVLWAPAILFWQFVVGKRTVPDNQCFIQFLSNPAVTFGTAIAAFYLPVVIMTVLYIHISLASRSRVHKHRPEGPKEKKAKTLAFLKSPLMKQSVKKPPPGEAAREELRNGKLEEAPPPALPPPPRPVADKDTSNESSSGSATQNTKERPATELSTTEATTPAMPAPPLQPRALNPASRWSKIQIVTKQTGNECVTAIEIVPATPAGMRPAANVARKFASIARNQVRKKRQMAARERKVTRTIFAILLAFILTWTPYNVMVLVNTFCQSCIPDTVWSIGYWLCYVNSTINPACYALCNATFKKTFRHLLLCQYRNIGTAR
# In short: (§1)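 Fluo-3 read-out, ex 488/em 540 nm, 60 sec on FLIPR 3. For agonist mode, compound added directly; for inhibition, 15 min compound pre-incubation before carbachol at EC80 (added as a 3× solution), or co-application. Buffer pH 7.4 with 1 mM probenecid; DMSO 0.5%.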
# M1 muscarinic receptor = target: T2, M1 muscarinic receptor (Homo sapiens, UniProt P11229); assay: Functional mobilization of intracellular calcium (FLIPR, Fluo-3), M1-CHO cells; format: cell-based; settings: for Emax: read-out: M1 Efficacy
# T2 construct: expressed in transfected cells; host or cells: CHO cells (M1-CHO, under zeocin and G418 selection)
# T2 sequence (P11229 1-460): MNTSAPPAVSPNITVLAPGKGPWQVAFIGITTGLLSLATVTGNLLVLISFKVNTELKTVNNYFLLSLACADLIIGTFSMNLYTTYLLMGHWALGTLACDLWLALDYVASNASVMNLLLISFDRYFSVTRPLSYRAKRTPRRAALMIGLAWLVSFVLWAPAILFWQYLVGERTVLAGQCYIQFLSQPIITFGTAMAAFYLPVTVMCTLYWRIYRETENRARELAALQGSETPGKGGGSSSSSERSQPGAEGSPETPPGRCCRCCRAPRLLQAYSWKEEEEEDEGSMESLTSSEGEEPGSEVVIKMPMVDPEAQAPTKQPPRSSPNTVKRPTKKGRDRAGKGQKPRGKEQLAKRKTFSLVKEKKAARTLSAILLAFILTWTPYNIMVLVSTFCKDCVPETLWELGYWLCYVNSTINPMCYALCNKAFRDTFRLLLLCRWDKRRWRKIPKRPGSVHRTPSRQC
# In short: as §1
# [1] = compound nos. 1-454, 100% efficacy is the maximum response obtained with the Carbachol control
# [2] = compound nos. 1-454, M4-CHO cells, calcium mobilization
# [3] = compound nos. 1-454, M1-CHO cells, calcium mobilization
# [4] = compound nos. 455-509, 100% efficacy is the maximum response obtained with the Carbachol control
SMILES,M4 Activity (M4 muscarinic receptor; [2]),M1 Activity (M1 muscarinic receptor; [3]),Emax (M4 muscarinic receptor; [1]) [%],Emax (M1 muscarinic receptor; [1]) [%],also measured
CC(=O)NC1CC2(CCN(CC3CC4C=CC3C4)CC2)c2ccccc21 (stereo not drawn) [compound 305],+ (activity was measured to be greater than or equal to 4.0 μM),+ (activity was measured to be greater than or equal to 3.0 μM),–,–,M4 Efficacy (M4 muscarinic receptor; [1]): + (efficacy was calculated to be 55% or less); M1 Efficacy (M1 muscarinic receptor; [1]): + (efficacy was calculated to be 65% or less)
CCCOC(=O)N1C2CCC1CC(N1CCC3(CC1)CN(C(=O)N(C)C)c1ccc(F)cc13)C2 (stereo not drawn) [compound 360],+ (activity was measured to be greater than or equal to 4.0 μM),++ (activity was measured to be between 0.7 μM and 3.0 μM),< 55,65 to 85,–
CCOC(=O)N1C2CCC1CC(N1CCC3(CC1)CN(C(=O)NC(C)C)c1ccc(F)cc13)C2 (stereo not drawn) [compound 296],+ (activity was measured to be greater than or equal to 4.0 μM),+ (activity was measured to be greater than or equal to 3.0 μM),55 to 70,65 to 85,–
CCOC(=O)N1CCC(N2CCC3(CC2)CN(C(=O)OCC)c2ccc(F)cc23)CC1 [compound 427],–,–,< 55,< 65,M4 Activity (M4 muscarinic receptor; compound nos. 1-454): + (activity was measured to be greater than or equal to 4.0 μM); M1 Activity (M1 muscarinic receptor; compound nos. 1-454): ++ (activity was measured to be between 0.7 μM and 3.0 μM)
COC(=O)N1CCC(N2CCC3(CC2)CN(C(C)=O)c2ccc(F)cc23)CC1 [compound 374],+ (activity was measured to be greater than or equal to 4.0 μM),++ (activity was measured to be between 0.7 μM and 3.0 μM),55 to 70,65 to 85,–
"CC(=O)N(C)[C@H]1CC2(CCN(C[C@H]3C[C@H]4CC[C@@H]3C4)CC2)c2ccccc21 [compound 190, N—((S)-1′-((1R,2S,4S)-bicyclo[2.2.1]heptan-2-ylmethyl)-2,3-dihydrospiro[indene-1,4′-piperidine]-3-yl)-N-methylacetamide]",+ (activity was measured to be greater than or equal to 4.0 μM),+ (activity was measured to be greater than or equal to 3.0 μM),55 to 70,> 85,–
Fc1ccc2c(c1)C1(CCN([C@@H]3C[C@@H]4CC[C@H]3C4)CC1)CO2 [compound 175],++ (activity was measured to be between 0.1 μM and 4.0 μM),+++ (activity was measured to be less than or equal to 0.7 μM),55 to 70,65 to 85,–
Cc1cncc(N2CCC(N3CCC4(CC3)CN(C(=O)N(C)C)c3ccccc34)CC2)n1 [compound 478],–,–,–,–,Emax (M4 muscarinic receptor; [4]): 25 to 100%; M4 Activity (M4 muscarinic receptor; compounds 455-509): ++ (activity was measured to be between 2.0 μM and 5.0 μM); Emax (M1 muscarinic receptor; [4]): > 100%; M1 Activity (M1 muscarinic receptor; compounds 455-509): +++ (activity was measured to be less than or equal to 2.0 μM)
CC(=O)N1CC2(CCN(C3CCCCC3)CC2)c2cc(F)ccc21 [compound 387],–,–,< 55,65 to 85,M4 Activity (M4 muscarinic receptor; compound nos. 1-454): ++ (activity was measured to be between 0.1 μM and 4.0 μM); M1 Activity (M1 muscarinic receptor; compound nos. 1-454): +++ (activity was measured to be less than or equal to 0.7 μM)
COCCOC(=O)N1CCC(N2CCC3(CC2)CN(C(=O)N(C)C)c2ccc(F)cc23)CC1 [compound 265],++ (activity was measured to be between 0.1 μM and 4.0 μM),++ (activity was measured to be between 0.7 μM and 3.0 μM),< 55,< 65,–
CCNC(=O)N1C2CCC1CC(N1CCC3(CC1)COc1ccc(F)cc13)C2 (stereo not drawn) [compound 219],+ (activity was measured to be greater than or equal to 4.0 μM),+ (activity was measured to be greater than or equal to 3.0 μM),< 55,65 to 85,–
CN(C)C(=O)N1CC2(CCN(C3CCN(c4nccnc4C#N)CC3)CC2)c2cc(F)ccc21 [compound 480],–,–,–,–,Emax (M4 muscarinic receptor; [4]): 25 to 100%; M4 Activity (M4 muscarinic receptor; compounds 455-509): ++ (activity was measured to be between 2.0 μM and 5.0 μM); Emax (M1 muscarinic receptor; [4]): 25 to 100%; M1 Activity (M1 muscarinic receptor; compounds 455-509): ++ (activity was measured to be between 2.0 μM and 5.0 μM)
Fc1ccc2c(c1)C1(CCN(C3CC4CCC(C4)C3)CC1)CN2 (stereo not drawn) [compound 377],–,–,55 to 70,65 to 85,M4 Activity (M4 muscarinic receptor; compound nos. 1-454): ++ (activity was measured to be between 0.1 μM and 4.0 μM); M1 Activity (M1 muscarinic receptor; compound nos. 1-454): +++ (activity was measured to be less than or equal to 0.7 μM)
CCOC(=O)N1CCC(N2CCC3(CC2)CN(C(=O)CC)c2ccc(F)cc23)CC1 [compound 317],+ (activity was measured to be greater than or equal to 4.0 μM),+ (activity was measured to be greater than or equal to 3.0 μM),< 55,< 65,–
COCCOC(=O)N1C2CCC1CC(N1CCC3(CC1)COc1ccc(F)cc13)C2 (stereo not drawn) [compound 378],–,–,55 to 70,65 to 85,M4 Activity (M4 muscarinic receptor; compound nos. 1-454): + (activity was measured to be greater than or equal to 4.0 μM); M1 Activity (M1 muscarinic receptor; compound nos. 1-454): ++ (activity was measured to be between 0.7 μM and 3.0 μM)
COCCOC(=O)N1C2CCC1CC(N1CCC3(CC1)CN(C(=O)C1CC1)c1ccc(F)cc13)C2 (stereo not drawn) [compound 311],+ (activity was measured to be greater than or equal to 4.0 μM),+++ (activity was measured to be less than or equal to 0.7 μM),55 to 70,65 to 85,–
CCOC(=O)N1CCC(N2CCC3(CC2)CN(C(C)=O)c2c(F)cccc23)CC1 [compound 381],–,–,< 55,65 to 85,M4 Activity (M4 muscarinic receptor; compound nos. 1-454): + (activity was measured to be greater than or equal to 4.0 μM); M1 Activity (M1 muscarinic receptor; compound nos. 1-454): +++ (activity was measured to be less than or equal to 0.7 μM)
CC(=O)N1CC2(CCN(C3CC4CCC(C3)N4C(=O)OC(C)C)CC2)c2cc(F)ccc21 (stereo not drawn) [compound 94],++ (activity was measured to be between 0.1 μM and 4.0 μM),+++ (activity was measured to be less than or equal to 0.7 μM),< 55,< 65,–
CC(=O)NC1CC2(CCN(C[C@@H]3C[C@H]4C=C[C@H]3C4)CC2)c2ccccc21 (stereo partly drawn) [compound 408],–,–,55 to 70,65 to 85,M4 Activity (M4 muscarinic receptor; compound nos. 1-454): +++ (activity was measured to be less than or equal to 0.1 μM); M1 Activity (M1 muscarinic receptor; compound nos. 1-454): +++ (activity was measured to be less than or equal to 0.7 μM)
CCc1nsc(N2CCC(N3CCC4(CC3)C[C@H](N(C)C(C)=O)c3ccccc34)CC2)n1 [compound 484],–,–,–,–,Emax (M4 muscarinic receptor; [4]): 25 to 100%; M4 Activity (M4 muscarinic receptor; compounds 455-509): ++ (activity was measured to be between 2.0 μM and 5.0 μM); Emax (M1 muscarinic receptor; [4]): > 100%; M1 Activity (M1 muscarinic receptor; compounds 455-509): +++ (activity was measured to be less than or equal to 2.0 μM)
CC(=O)N[C@H]1CC2(CCN(C3CCCCCC3)CC2)c2ccccc21 [compound 143],+++ (activity was measured to be less than or equal to 0.1 μM),+++ (activity was measured to be less than or equal to 0.7 μM),> 70,65 to 85,–
